Our source for the Time, IC50 and Activity values is ChEMBL document CHEMBL3352399, “Synthesis of aminoalkyl-substituted aurone derivatives as acetylcholinesterase inhibitors” (Bioorg Med Chem, 2015).

The first series concerns Mus musculus. The series is described as follows: Reversal of scopolamine-induced memory deficit in ICR mouse assessed as latency time at 1 mg/kg, po administered 30 min before acquisition trial by passive avoidance test (Rvb =271.0 +/- 14.49 seconds). The class given is functional.
Settings: not given
As to `COc1ccc(/C=C2\Oc3cc(OCCN4CCCCC4)ccc3C2=O)cc1OC.Cl`, the Time was 242.5 s.

For `COc1ccc2c3c1O[C@H]1C[C@@H](O)C=C[C@@]31CCN(C)C2` [GALANTAMINE], the Time worked out at 212.2 s.

Another series deals with Mus musculus. The series is described as follows: Reversal of scopolamine-induced memory deficit in ICR mouse assessed as latency time at 5 mg/kg, po administered 30 min before acquisition trial by passive avoidance test (Rvb =271.0 +/- 14.49 seconds). The format is functional.
Settings: not given
For the compound `COc1ccc(/C=C2\Oc3cc(OCCN4CCCCC4)ccc3C2=O)cc1OC.Cl`, the Time amounted to 206.8 s.

In a further series the test system is Mus musculus. Put plainly: Reversal of scopolamine-induced memory deficit in ICR mouse assessed as latency time at 0.5 mg/kg, ip administered 30 min before acquisition trial by passive avoidance test (Rvb =271.0 +/- 14.49 seconds). The class given is functional. To be noted: route intraperitoneal.
Regarding `COc1ccc(/C=C2\Oc3cc(OCCN4CCCCC4)ccc3C2=O)cc1OC.Cl`, the Time is recorded as 88.9 s.

Another series has as its target T1, Acetylcholinesterase (Mus musculus, UniProt P21836).
T1 sequence (P21836 whole entry): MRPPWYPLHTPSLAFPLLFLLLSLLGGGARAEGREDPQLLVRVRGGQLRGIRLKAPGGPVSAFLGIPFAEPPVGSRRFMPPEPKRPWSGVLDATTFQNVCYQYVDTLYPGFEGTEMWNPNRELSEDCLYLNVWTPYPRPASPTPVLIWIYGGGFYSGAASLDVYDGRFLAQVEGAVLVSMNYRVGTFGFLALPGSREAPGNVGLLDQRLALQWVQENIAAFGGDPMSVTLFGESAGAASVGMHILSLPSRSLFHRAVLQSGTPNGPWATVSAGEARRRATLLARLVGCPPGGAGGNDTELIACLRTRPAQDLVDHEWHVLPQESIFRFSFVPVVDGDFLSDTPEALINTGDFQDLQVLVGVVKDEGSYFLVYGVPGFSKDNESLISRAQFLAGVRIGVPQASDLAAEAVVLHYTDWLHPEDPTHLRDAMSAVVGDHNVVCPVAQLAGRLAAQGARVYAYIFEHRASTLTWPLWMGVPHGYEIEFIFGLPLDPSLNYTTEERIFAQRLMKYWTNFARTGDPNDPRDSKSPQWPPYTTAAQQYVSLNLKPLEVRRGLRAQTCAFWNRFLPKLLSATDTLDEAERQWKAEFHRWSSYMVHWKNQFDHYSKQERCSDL
Settings: not given
The term IC50 denotes the concentration that inhibits the measured activity by half. `O=C1/C(=C/c2ccc(O)cc2)Oc2cc(OCCN3CCCCC3)ccc21` showed an IC50 of 13500 nM.

As for `O=C1/C(=C/c2ccc(O)cc2)Oc2cc(OCCN3CCCC3)ccc21`, half-maximal inhibition (IC50) required 11100 nM.

In the case of `CCN(CC)CCOc1ccc2c(c1)O/C(=C\c1ccc(O)cc1)C2=O`, the half-maximal inhibitory concentration (IC50) turned out to be 35500 nM.

In turn, `O=C1/C(=C/c2ccc(O)cc2)Oc2cc(OCCN3CCOCC3)ccc21` came in with an IC50 of 186000 nM.

Compound `COc1ccccc1/C=C1\Oc2cc(OCCN3CCCCC3)ccc2C1=O` showed an IC50 of 2520 nM.

In turn, `COc1cccc(/C=C2\Oc3cc(OCCN4CCCCC4)ccc3C2=O)c1` yielded a half-inhibitory concentration (IC50) of 1150 nM.

`COc1ccc(/C=C2\Oc3cc(OCCN4CCCCC4)ccc3C2=O)cc1` registered an IC50 of 900 nM.

Consider `COc1ccc(/C=C2\Oc3cc(OCCN4CCCCC4)ccc3C2=O)cc1OC.Cl`, for which half-maximal inhibition (IC50) required 400 nM.

Compound `COc1cc(/C=C2\Oc3cc(OCCN4CCCCC4)ccc3C2=O)cc(OC)c1OC` yielded an IC50 of 1120 nM.

For `COc1ccccc1/C=C1\Oc2cc(OCCN3CCCC3)ccc2C1=O`, the 50% inhibitory concentration (IC50) stood at 2870 nM.

In turn, `COc1cccc(/C=C2\Oc3cc(OCCN4CCCC4)ccc3C2=O)c1` gave an IC50 of 1610 nM.

`COc1ccc(/C=C2\Oc3cc(OCCN4CCCC4)ccc3C2=O)cc1`: the IC50 came out at 2380 nM.

`COc1cccc(/C=C2\Oc3cc(OCCN4CCCC4)ccc3C2=O)c1OC` returned a 50% inhibitory concentration (IC50) of 990 nM.

`COc1ccc(/C=C2\Oc3cc(OCCN4CCCC4)ccc3C2=O)c(OC)c1` gave a 50% inhibitory concentration (IC50) of 1610 nM.

In the case of `COc1ccc(OC)c(/C=C2\Oc3cc(OCCN4CCCC4)ccc3C2=O)c1`, the IC50 is 1490 nM.

`COc1ccc(/C=C2\Oc3cc(OCCN4CCCC4)ccc3C2=O)cc1OC`: the 50% inhibitory concentration (IC50) came to 750 nM.

As to `COc1cc(/C=C2\Oc3cc(OCCN4CCCC4)ccc3C2=O)cc(OC)c1`, half-maximal inhibition (IC50) was put at 4810 nM.

With `COc1ccc(/C=C2\Oc3cc(OCCN4CCCC4)ccc3C2=O)c(OC)c1OC`, the IC50 worked out at 13700 nM.

`COc1cc(/C=C2\Oc3cc(OCCN4CCCC4)ccc3C2=O)cc(OC)c1OC` returned an IC50 of 1560 nM.

In the case of `COc1cccc(/C=C2\Oc3cc(OCCCN4CCCCC4)ccc3C2=O)c1`, the IC50 is 750 nM.

`COc1ccccc1/C=C1\Oc2cc(OCCCN3CCCC3)ccc2C1=O` registered a half-inhibitory concentration (IC50) of 5930 nM.

`COc1cccc(/C=C2\Oc3cc(OCCCN4CCCC4)ccc3C2=O)c1` came in with an IC50 of 4200 nM.

The compound `COc1ccc(/C=C2\Oc3cc(OCCCN4CCCC4)ccc3C2=O)cc1` showed a concentration for half-maximal inhibition (IC50) of 3310 nM.

`COc1cccc(/C=C2\Oc3cc(OCCCN4CCCC4)ccc3C2=O)c1OC` returned a half-inhibitory concentration (IC50) of 1050 nM.

With `COc1ccc(/C=C2\Oc3cc(OCCCN4CCCC4)ccc3C2=O)c(OC)c1`, half-maximal inhibition (IC50) was put at 1660 nM.

With `COc1ccc(OC)c(/C=C2\Oc3cc(OCCCN4CCCC4)ccc3C2=O)c1`, the IC50 came to 4740 nM.

As to `COc1ccc(/C=C2\Oc3cc(OCCCN4CCCC4)ccc3C2=O)cc1OC`, the IC50 amounted to 1030 nM.

`COc1cc(/C=C2\Oc3cc(OCCCN4CCCC4)ccc3C2=O)cc(OC)c1` had an IC50 of 4630 nM.

`COc1ccc(/C=C2\Oc3cc(OCCCCN4CCCCC4)ccc3C2=O)cc1OC` showed a 50% inhibitory concentration (IC50) of 1520 nM.

For the compound `COc1ccc(/C=C2\Oc3cc(OCCCCCN4CCCCC4)ccc3C2=O)cc1OC`, the IC50 turned out to be 1260 nM.

`COc1ccc(/C=C2\Oc3cc(OCCCN4CCCCC4)ccc3C2=O)cc1OC` gave an IC50 of 890 nM.

With `O=C1/C(=C/c2ccc(O)c(O)c2)Oc2cc(O)ccc21` [SULFURETIN], the half-maximal inhibitory concentration (IC50) is 699000 nM.

The next series relates to Mus musculus. The series is described as follows: Reversal of scopolamine-induced memory deficit in ICR mouse assessed as latency time at 2 mg/kg, po administered 30 min before acquisition trial by passive avoidance test (Rvb =271.0 +/- 14.49 seconds). The format is functional.
Settings: not given
Take `COc1ccc(/C=C2\Oc3cc(OCCN4CCCCC4)ccc3C2=O)cc1OC.Cl`: the Time is recorded as 222.4 s.

In the next series the test system is Mus musculus. Put plainly: Toxicity in ICR mouse assessed as behavioral changes measured as latency time during acquisition trial at 0.5 to 5 mg/kg, po administered 30 min before acquisition trial by passive avoidance test. The format is organism-based. The arrangement: dose 0.5-5 mg/kg, route oral. To be noted: in vivo, 0.5 h.
For `COc1ccc(/C=C2\Oc3cc(OCCN4CCCCC4)ccc3C2=O)cc1OC.Cl`, the Activity result is listed as “Non-toxic”.
